From ChEMBL document CHEMBL4049460, “Trisubstituted Imidazoles with a Rigidized Hinge Binding Motif Act As Single Digit nM Inhibitors of Clinically Relevant EGFR L858R/T790M and L858R/T790M/C797S Mutants: An Example of Target Hopping” (J Med Chem, 2017)

Assays:
[1] = biological target: T1, Epidermal growth factor receptor (Homo sapiens, UniProt P00533); assay: Inhibition of recombinant human GST-tagged wild type EGFR ( 668 to 1210 residues) cytoplasmic domain expressed in baculovirus expression system preincubated for 20 mins followed by addition of [33P]-ATP measured after 2 hrs by filter-binding method
[2] = biological target: T2, Epidermal growth factor receptor (Homo sapiens, UniProt P00533, L858R); assay: Inhibition of recombinant human GST-tagged EGFR L858R mutant cytoplasmic domain expressed in baculovirus expression system preincubated for 20 mins followed by addition of [33P]-ATP measured after 2 hrs by filter-binding method
[3] = biological target: T3, Epidermal growth factor receptor (Homo sapiens, UniProt P00533, L858R/T790M); assay: (§1) Inhibition of recombinant human GST-tagged EGFR L858R/T790M double mutant cytoplasmic domain expressed in baculovirus expression system preincubated for 20 mins followed by addition of [33P]-ATP measured after 2 hrs by filter-binding method
[4] = biological target: Epidermal growth factor receptor (Homo sapiens, UniProt P00533, C797S/L858R/T790M); assay: (§2) Inhibition of recombinant human N-terminally GST-tagged EGFR L858R/T790M/C797S triple mutant expressed in baculovirus in Sf9 insect cells preincubated for 20 mins followed by addition of [33P]-ATP measured after 2 hrs by filter-binding method
Homo sapiens = species: Homo sapiens; assay: Selectivity ratio of IC50 for EGFR L858R/T790M double mutant (unknown origin) to IC50 for wild-type EGFR (unknown origin)
[5] = biological target: Mitogen-activated protein kinase 14 (Homo sapiens, UniProt Q16539); assay: Inhibition of p38alpha MAPK (unknown origin) assessed as decrease in ATF2 phosphorylation at Thr69/71 at 1 uM after 1 hr by ELISA
Sequence of Mitogen-activated protein kinase 14 (Q16539 whole entry): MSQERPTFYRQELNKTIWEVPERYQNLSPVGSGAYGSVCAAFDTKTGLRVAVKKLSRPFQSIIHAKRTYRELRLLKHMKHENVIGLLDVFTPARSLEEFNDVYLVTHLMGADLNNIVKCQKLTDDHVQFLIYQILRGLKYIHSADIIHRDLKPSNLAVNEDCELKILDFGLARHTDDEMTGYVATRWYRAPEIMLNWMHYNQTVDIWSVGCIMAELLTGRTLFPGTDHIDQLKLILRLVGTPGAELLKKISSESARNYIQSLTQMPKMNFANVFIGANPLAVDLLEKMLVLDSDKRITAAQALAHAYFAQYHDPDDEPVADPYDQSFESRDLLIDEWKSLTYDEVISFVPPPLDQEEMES

[6] = biological target: Epidermal growth factor receptor (Homo sapiens, UniProt P00533, T790M/L858R); assay: as §1
[7] = biological target: Epidermal growth factor receptor (Homo sapiens, UniProt P00533, T790M/C797S/L858R); assay: as §2
[8] = biological target: T1, Epidermal growth factor receptor; assay: Inhibition of wild-type EGFR (unknown origin)
[9] = biological target: T2, Epidermal growth factor receptor; assay: Inhibition of EGFR L858R mutant (unknown origin)
[10] = biological target: T3, Epidermal growth factor receptor; assay: Inhibition of EGFR L858R/T790M double mutant (unknown origin)

Row | SMILES | IC50 ([1]; read-out: IC50) [nM] | IC50 ([2]; read-out: IC50) [nM] | IC50 [3] [nM] | IC50 [4] [nM] | IC50 [7] | other results
1 | OCCCc1nc(-c2ccc(F)cc2)c(-c2ccnc3[nH]ccc23)[nH]1 | 44 | 24.4 | 893 | 943 | – | Ratio IC50 (Homo sapiens): > 130; IC50 [5]: 12 nM
2 | C=CC(=O)NCc1cccc(-c2cc3cccnc3[nH]2)c1 | – | – | – | – | Not Active | IC50 [1]: Not Active; IC50 [2]: Not Active; IC50 [6]: Not Active
3 | NCc1cccc(-c2nc(-c3ccc(F)cc3)c(-c3ccnc4[nH]c(-c5ccccc5)cc34)[nH]2)c1 | – | – | – | 336 | – | IC50 [8]: < 0.5 nM; IC50 [9]: < 0.5 nM; IC50 [10]: 160 nM
4 | Oc1ccc(-c2nc(-c3ccnc4[nH]c(-c5ccccc5)cc34)c(-c3ccc(F)cc3)[nH]2)cc1 | 49.2 | 24.1 | 916 | – | – | –
5 | Oc1cccc(-c2nc(-c3ccc(F)cc3)c(-c3ccnc4[nH]c(-c5ccccc5)cc34)[nH]2)c1 | 30.4 | 23.6 | 706 | 782 | – | IC50 [5]: 7 nM
6 | Oc1ccc(-c2nc(-c3ccco3)c(-c3ccnc4[nH]c(-c5ccccc5)cc34)[nH]2)cc1 | 1790 | 1300 | 3310 | – | – | IC50 [5]: 288 nM
7 | C=CC(=O)Nc1cccc(-c2c[nH]c3nccc(Cl)c23)c1 | 525 | 459 | 67.9 | – | – | –
8 | C=CC(=O)Nc1cccc(-c2c[nH]c3nccc(-c4[nH]c(-c5ccccc5)nc4-c4ccc(F)cc4)c23)c1 | 10.5 | 7.8 | 112 | – | Not Active | –
9 | CCC(=O)Nc1cccc(-c2c[nH]c3nccc(-c4[nH]c(-c5ccccc5)nc4-c4ccc(F)cc4)c23)c1 | – | – | – | – | Not Active | IC50 [1]: Not Active; IC50 [2]: Not Active; IC50 [6]: Not Active
10 | C=CC(=O)Nc1cccc(-c2c[nH]c3nccc(-c4[nH]c(CCCO)nc4C(F)(F)F)c23)c1 | 680 | 297 | 1880 | – | Not Active | –
11 | Fc1ccc(-c2[nH]c(-c3ccccc3)nc2-c2ccnc3[nH]c(-c4ccccc4)cc23)cc1 | 215 | 102 | 1450 | 1430 | – | –
12 | CCC(=O)Nc1cccc(-c2c[nH]c3nccc(-c4[nH]c(CCCO)nc4C4CC4)c23)c1 | – | – | – | – | Not Active | IC50 [1]: Not Active; IC50 [2]: Not Active; IC50 [6]: Not Active
13 | Nc1cccc(-c2cc3c(-c4[nH]c(-c5ccccc5)nc4-c4ccc(F)cc4)ccnc3[nH]2)c1 | 24.1 | 15.4 | 651 | – | – | –
